Laboratory results from patent US10905123B2, “Herbicidal compounds” (Syngenta Participations AG, priority 2015, dated 2021).

Key:
Type in all cases: in vivo
[1] = system: Lolium perenne (LOLPE); experiment: B2a post-emergence herbicidal activity; conditions: Rate 1000 g/ha; evaluated after 13 days
Method: (§1) Seeds of a variety of test species were sown in standard soil in pots: Amaranthus retroflexus (AMARE), Setaria faberi (SETFA), Zea mays (ZEAMX), Abutilon threophrasti (ABUTH), Echinochloa crus-galli (ECHCG), Lolium perenne (LOLPE). After 8 days cultivation (post-emergence) under controlled conditions in a glasshouse (at 24/16° C., day/night; 14 hours light; 65% humidity), the plants were sprayed with an aqueous spray solution derived from the formulation of the technical active ingredient in acetone/I water (50:50) solution containing 0.5% Tween 20 (polyoxyethelyene sorbitan monolaurate, CAS RN 9005-64-5). The test plants were then grown in a glasshouse under controlled conditions (at 24/16° C., day/night; 14 hours light; 65% humidity) and watered twice daily. After 13 days, the test was evaluated (5=total damage to plant; 0=no damage to plant).

[2] = system: Zea mays (ZEAMX); experiment: B2a post-emergence herbicidal activity; conditions: Rate 1000 g/ha; evaluated after 13 days
Method: as §1

[3] = system: Amaranthus retroflexus (AMARE); experiment: B2a post-emergence herbicidal activity; conditions: Rate 1000 g/ha; evaluated after 13 days
Method: as §1

[4] = system: Echinochloa crus-galli (ECHCG); experiment: B2a post-emergence herbicidal activity; conditions: Rate 1000 g/ha; evaluated after 13 days
Method: as §1

[5] = system: Abutilon threophrasti (ABUTH); experiment: B2a post-emergence herbicidal activity; conditions: Rate 1000 g/ha; evaluated after 13 days
Method: as §1

[6] = system: Setaria faberi (SETFA); experiment: B2a post-emergence herbicidal activity; conditions: Rate 1000 g/ha; evaluated after 13 days
Method: as §1

[7] = system: Lolium perenne (LOLPE); experiment: B1a pre-emergence herbicidal activity; conditions: Rate 1000 g/ha; evaluated after 13 days
Method: as §1, with “After” for “After 8 days”, “for one day (pre-emergence)” for “(post-emergence)”, “acetone/water” for “acetone/I water”, “plant). Results are shown below in Table 4” for “plant).”

[8] = system: Zea mays (ZEAMX); experiment: B1a pre-emergence herbicidal activity; conditions: Rate 1000 g/ha; evaluated after 13 days
Method: as §1, with “After” for “After 8 days”, “for one day (pre-emergence)” for “(post-emergence)”, “acetone/water” for “acetone/I water”, “plant). Results are shown below in Table 4” for “plant).”

[9] = system: Amaranthus retroflexus (AMARE); experiment: B1a pre-emergence herbicidal activity; conditions: Rate 1000 g/ha; evaluated after 13 days
Method: as §1, with “After” for “After 8 days”, “for one day (pre-emergence)” for “(post-emergence)”, “acetone/water” for “acetone/I water”, “plant). Results are shown below in Table 4” for “plant).”

[10] = system: Echinochloa crus-galli (ECHCG); experiment: B1a pre-emergence herbicidal activity; conditions: Rate 1000 g/ha; evaluated after 13 days
Method: as §1, with “After” for “After 8 days”, “for one day (pre-emergence)” for “(post-emergence)”, “acetone/water” for “acetone/I water”, “plant). Results are shown below in Table 4” for “plant).”

[11] = system: Abutilon threophrasti (ABUTH); experiment: B1a pre-emergence herbicidal activity; conditions: Rate 1000 g/ha; evaluated after 13 days
Method: as §1, with “After” for “After 8 days”, “for one day (pre-emergence)” for “(post-emergence)”, “acetone/water” for “acetone/I water”, “plant). Results are shown below in Table 4” for “plant).”

[12] = system: Setaria faberi (SETFA); experiment: B1a pre-emergence herbicidal activity; conditions: Rate 1000 g/ha; evaluated after 13 days
Method: as §1, with “After” for “After 8 days”, “for one day (pre-emergence)” for “(post-emergence)”, “acetone/water” for “acetone/I water”, “plant). Results are shown below in Table 4” for “plant).”

[13] = system: Lolium perenne (LOLPE); experiment: B2 post-emergence herbicidal activity; conditions: evaluated after 13 days
Method: as §1, with “Triticum aestivium (TRZAW), Oryza sativa (ORYSA), Avena fatua (AVEFA), Alopecurus myosuroides (ALOMY),” for “Amaranthus retroflexus (AMARE), Setaria faberi (SETFA), Zea mays (ZEAMX), Abutilon threophrasti (ABUTH),”, “acetone/water” for “acetone/I water”

[14] = system: Alopecurus myosuroides (ALOMY); experiment: B2 post-emergence herbicidal activity; conditions: evaluated after 13 days
Method: as §1, with “Triticum aestivium (TRZAW), Oryza sativa (ORYSA), Avena fatua (AVEFA), Alopecurus myosuroides (ALOMY),” for “Amaranthus retroflexus (AMARE), Setaria faberi (SETFA), Zea mays (ZEAMX), Abutilon threophrasti (ABUTH),”, “acetone/water” for “acetone/I water”

[15] = system: Echinochloa crus-galli (ECHCG); experiment: B2 post-emergence herbicidal activity; conditions: evaluated after 13 days
Method: as §1, with “Triticum aestivium (TRZAW), Oryza sativa (ORYSA), Avena fatua (AVEFA), Alopecurus myosuroides (ALOMY),” for “Amaranthus retroflexus (AMARE), Setaria faberi (SETFA), Zea mays (ZEAMX), Abutilon threophrasti (ABUTH),”, “acetone/water” for “acetone/I water”

[16] = system: Oryza sativa (ORYSA); experiment: B2 post-emergence herbicidal activity; conditions: evaluated after 13 days
Method: as §1, with “Triticum aestivium (TRZAW), Oryza sativa (ORYSA), Avena fatua (AVEFA), Alopecurus myosuroides (ALOMY),” for “Amaranthus retroflexus (AMARE), Setaria faberi (SETFA), Zea mays (ZEAMX), Abutilon threophrasti (ABUTH),”, “acetone/water” for “acetone/I water”

[17] = system: Avena fatua (AVEFA); experiment: B2 post-emergence herbicidal activity; conditions: evaluated after 13 days
Method: as §1, with “Triticum aestivium (TRZAW), Oryza sativa (ORYSA), Avena fatua (AVEFA), Alopecurus myosuroides (ALOMY),” for “Amaranthus retroflexus (AMARE), Setaria faberi (SETFA), Zea mays (ZEAMX), Abutilon threophrasti (ABUTH),”, “acetone/water” for “acetone/I water”

[18] = system: Triticum aestivium (TRZAW); experiment: B2 post-emergence herbicidal activity; conditions: evaluated after 13 days
Method: as §1, with “Triticum aestivium (TRZAW), Oryza sativa (ORYSA), Avena fatua (AVEFA), Alopecurus myosuroides (ALOMY),” for “Amaranthus retroflexus (AMARE), Setaria faberi (SETFA), Zea mays (ZEAMX), Abutilon threophrasti (ABUTH),”, “acetone/water” for “acetone/I water”

[19] = system: Lolium perenne (LOLPE); experiment: B1 pre-emergence herbicidal activity; conditions: evaluated after 13 days
Method: as §1, with “Triticum aestivium (TRZAW), Oryza sativa (ORYSA), Avena fatua (AVEFA), Alopecurus myosuroides (ALOMY),” for “Amaranthus retroflexus (AMARE), Setaria faberi (SETFA), Zea mays (ZEAMX), Abutilon threophrasti (ABUTH),”, “After” for “After 8 days”, “for one day (pre-emergence)” for “(post-emergence)”, “acetone/water” for “acetone/I water”

[20] = system: Alopecurus myosuroides (ALOMY); experiment: B1 pre-emergence herbicidal activity; conditions: evaluated after 13 days
Method: as §1, with “Triticum aestivium (TRZAW), Oryza sativa (ORYSA), Avena fatua (AVEFA), Alopecurus myosuroides (ALOMY),” for “Amaranthus retroflexus (AMARE), Setaria faberi (SETFA), Zea mays (ZEAMX), Abutilon threophrasti (ABUTH),”, “After” for “After 8 days”, “for one day (pre-emergence)” for “(post-emergence)”, “acetone/water” for “acetone/I water”

[21] = system: Echinochloa crus-galli (ECHCG); experiment: B1 pre-emergence herbicidal activity; conditions: evaluated after 13 days
Method: as §1, with “Triticum aestivium (TRZAW), Oryza sativa (ORYSA), Avena fatua (AVEFA), Alopecurus myosuroides (ALOMY),” for “Amaranthus retroflexus (AMARE), Setaria faberi (SETFA), Zea mays (ZEAMX), Abutilon threophrasti (ABUTH),”, “After” for “After 8 days”, “for one day (pre-emergence)” for “(post-emergence)”, “acetone/water” for “acetone/I water”

[22] = system: Oryza sativa (ORYSA); experiment: B1 pre-emergence herbicidal activity; conditions: evaluated after 13 days
Method: as §1, with “Triticum aestivium (TRZAW), Oryza sativa (ORYSA), Avena fatua (AVEFA), Alopecurus myosuroides (ALOMY),” for “Amaranthus retroflexus (AMARE), Setaria faberi (SETFA), Zea mays (ZEAMX), Abutilon threophrasti (ABUTH),”, “After” for “After 8 days”, “for one day (pre-emergence)” for “(post-emergence)”, “acetone/water” for “acetone/I water”

[23] = system: Avena fatua (AVEFA); experiment: B1 pre-emergence herbicidal activity; conditions: evaluated after 13 days
Method: as §1, with “Triticum aestivium (TRZAW), Oryza sativa (ORYSA), Avena fatua (AVEFA), Alopecurus myosuroides (ALOMY),” for “Amaranthus retroflexus (AMARE), Setaria faberi (SETFA), Zea mays (ZEAMX), Abutilon threophrasti (ABUTH),”, “After” for “After 8 days”, “for one day (pre-emergence)” for “(post-emergence)”, “acetone/water” for “acetone/I water”

[24] = system: Triticum aestivium (TRZAW); experiment: B1 pre-emergence herbicidal activity; conditions: evaluated after 13 days
Method: as §1, with “Triticum aestivium (TRZAW), Oryza sativa (ORYSA), Avena fatua (AVEFA), Alopecurus myosuroides (ALOMY),” for “Amaranthus retroflexus (AMARE), Setaria faberi (SETFA), Zea mays (ZEAMX), Abutilon threophrasti (ABUTH),”, “After” for “After 8 days”, “for one day (pre-emergence)” for “(post-emergence)”, “acetone/water” for “acetone/I water”

Cc1nn(-c2cncnc2)cc1N(C)C(=O)Nc1c(C)noc1C [Compound A45]
0: Control of LOLPE after post-emergence application (damage score 0-5) [1] | Control of ZEAMX after post-emergence application (damage score 0-5) [2] | Control of AMARE after post-emergence application (damage score 0-5) [3] | Control of ECHCG after post-emergence application (damage score 0-5) [4] | Control of ABUTH after post-emergence application (damage score 0-5) [5] | Control of SETFA after post-emergence application (damage score 0-5) [6] | Control of LOLPE after pre-emergence application (damage score 0-5) [7] | Control of ZEAMX after pre-emergence application (damage score 0-5) [8] | Control of AMARE after pre-emergence application (damage score 0-5) [9] | Control of ECHCG after pre-emergence application (damage score 0-5) [10] | Control of ABUTH after pre-emergence application (damage score 0-5) [11] | Control of SETFA after pre-emergence application (damage score 0-5) [12]

CN(C(=O)OC(C)(C)C)c1cn(-c2cccnc2)nc1Cl [Compound A60, tert-butyl N-[3-chloro-1-(3-pyridyl)pyrazol-4-yl]-N-methyl-carbamate]
0: Control of LOLPE after pre-emergence application (damage score 0-5) [7] | Control of ABUTH after pre-emergence application (damage score 0-5) [11]
1: Control of AMARE after pre-emergence application (damage score 0-5) [9]
4: Control of ECHCG after post-emergence application (damage score 0-5) [4] | Control of SETFA after post-emergence application (damage score 0-5) [6] | Control of SETFA after pre-emergence application (damage score 0-5) [12]
3: Control of ZEAMX after post-emergence application (damage score 0-5) [2] | Control of AMARE after post-emergence application (damage score 0-5) [3]
2: Control of LOLPE after post-emergence application (damage score 0-5) [1] | Control of ABUTH after post-emergence application (damage score 0-5) [5] | Control of ZEAMX after pre-emergence application (damage score 0-5) [8] | Control of ECHCG after pre-emergence application (damage score 0-5) [10]

CN(C(=O)OC(C)(C)C)c1cn(-c2cncnc2)nc1C(F)(F)F [Compound A6]
0: Control of ALOMY after pre-emergence application (damage score 0-5) ([20]; Rate 1000 g/ha) | Control of TRZAW after pre-emergence application (damage score 0-5) ([24]; Rate 1000 g/ha)
3: Control of ALOMY after post-emergence application (damage score 0-5) ([14]; Rate 1000 g/ha) | Control of AVEFA after pre-emergence application (damage score 0-5) ([23]; Rate 1000 g/ha)
5: Control of ECHCG after post-emergence application (damage score 0-5) ([15]; Rate 1000 g/ha) | Control of ORYSA after post-emergence application (damage score 0-5) ([16]; Rate 1000 g/ha) | Control of ECHCG after pre-emergence application (damage score 0-5) ([21]; Rate 1000 g/ha)
1: Control of LOLPE after post-emergence application (damage score 0-5) ([13]; Rate 1000 g/ha) | Control of AVEFA after post-emergence application (damage score 0-5) ([17]; Rate 1000 g/ha) | Control of TRZAW after post-emergence application (damage score 0-5) ([18]; Rate 1000 g/ha) | Control of LOLPE after pre-emergence application (damage score 0-5) ([19]; Rate 1000 g/ha)
2: Control of ORYSA after pre-emergence application (damage score 0-5) ([22]; Rate 1000 g/ha)

Cc1nn(-c2cncnc2)cc1NC(=O)OC(C)(C)C [Compound A3, tert-butyl N-(3-methyl-1-pyrimidin-5-yl-pyrazol-4-yl)carbamate]
4: Control of AVEFA after post-emergence application (damage score 0-5) ([17]; Rate 500 g/ha) | Control of ECHCG after pre-emergence application (damage score 0-5) ([21]; Rate 500 g/ha)
2: Control of LOLPE after post-emergence application (damage score 0-5) ([13]; Rate 500 g/ha) | Control of ALOMY after post-emergence application (damage score 0-5) ([14]; Rate 500 g/ha)
0: Control of LOLPE after pre-emergence application (damage score 0-5) ([19]; Rate 500 g/ha) | Control of ALOMY after pre-emergence application (damage score 0-5) ([20]; Rate 500 g/ha) | Control of AVEFA after pre-emergence application (damage score 0-5) ([23]; Rate 500 g/ha)
5: Control of ECHCG after post-emergence application (damage score 0-5) ([15]; Rate 500 g/ha)
1: Control of ORYSA after post-emergence application (damage score 0-5) ([16]; Rate 500 g/ha) | Control of TRZAW after post-emergence application (damage score 0-5) ([18]; Rate 500 g/ha) | Control of ORYSA after pre-emergence application (damage score 0-5) ([22]; Rate 500 g/ha) | Control of TRZAW after pre-emergence application (damage score 0-5) ([24]; Rate 500 g/ha)
